Data: US6881418B2, “Liquid deodorant killing microorganism and method of microorganism-killing deodorization” (K.I Chemical Industry Co., Ltd., priority 2001, dated 2005)

Key:
[1] = system: Escherichia genus microbes; experiment: Test of fast-acting microbicidal efficacy (viable cell count against contact time); assay type: cell-based; details: pH 8
Protocol: Escherichia genus microbes, which were subjected to cell washing, were diluted with phosphate/citrate buffer solution (pH 8) to a concentration of approximately 10^6 CFU/ml, and 1 L each of the prepared solution was poured into glass beakers. Example 1 or 8, and the powdered substance of Compound A1 were each added thereto so as to bring to a prescribed concentration (indicated based on active ingredient), respectively, and the mixtures were stirred for 90 minutes. A portion of each mixture was taken at 5, 10, 30, and 90 minutes and was diluted with sterilized water. Then, the diluted mixture was inoculated onto a nutrient plate agar medium and cultured in an incubator at 30° C. for 3 days. Then, viable cells therein were counted. The results are shown in Tables 6 and 7 in the unit of CFU/ml. Tables 6 and 7 indicate the results obtained by conducting the tests over two separate occasions under the above conditions.

[2] = Test of sustainability of deodorant effect against active sludge (gas detector tubes); details: gas phase over 40% sludge suspension, ND = equal to or lower than detection limit
Protocol: Active sludge (dehydrated cake, water content 70%) obtained from a sewage treatment plant was used for tests on the deodorant effect. The obtained active sludge was suspended with distilled water to form a 40% suspension. Example 9, Comparative Example 2, or powdered Compound A2 was then added to the suspension in a prescribed amount (indicated based on active ingredient) and stirred. 200 g of each suspension containing Example 9, Comparative Example 2, or powdered Compound A2 was transferred to a 1-liter Erlenmeyer flask, and the flask was sealed with a rubber stopper provided with 2 glass pipes each having a rubber tube and a pinchcock. […] The measurement of each gas component was conducted by inserting a gas detector tube into one of the rubber tubes with both pinchcocks open. Used herein were a gas detector 3L (GASTEC CORPORATION) for ammonia, a gas detector 3L (GASTEC CORPORATION) for hydrogen sulfide, and a gas detector 71 (GASTEC CORPORATION) for methyl mercaptan.

[3] = 10 ppm active ingredient, 1 hour later
[4] = 10 ppm active ingredient, 2 hours later
[5] = 20 ppm active ingredient, 1 hour later
[6] = 20 ppm active ingredient, 2 hours later
[7] = 40 ppm active ingredient, 1 hour later
[8] = 40 ppm active ingredient, 2 hours later
[9] = 80 ppm active ingredient, 2 hours later

Structure (SMILES): CC1(C)C(=O)N(Br)C(=O)N1Br [Compound A1, 1,3-dibromo-5,5-dimethylhydantoin]
- viable cells ([1]; 0.25 ppm active ingredient, contact time 5 min, Table 6): 3.0 × 10^6 CFU/ml
- viable cells ([1]; 0.25 ppm active ingredient, contact time 5 min, Table 7): 5.6 × 10^6 CFU/ml
- viable cells ([1]; 0.25 ppm active ingredient, contact time 10 min, Table 6): 3.1 × 10^6 CFU/ml
- viable cells ([1]; 0.25 ppm active ingredient, contact time 10 min, Table 7): 5.1 × 10^6 CFU/ml
- viable cells ([1]; 0.25 ppm active ingredient, contact time 30 min, Table 6): 4.5 × 10^5 CFU/ml
- viable cells ([1]; 0.25 ppm active ingredient, contact time 30 min, Table 7): 3.7 × 10^5 CFU/ml
- viable cells ([1]; 0.25 ppm active ingredient, contact time 90 min, Table 6): 3.7 × 10^5 CFU/ml
- viable cells ([1]; 0.25 ppm active ingredient, contact time 90 min, Table 7): 2.7 × 10^5 CFU/ml
- viable cells ([1]; 0.5 ppm active ingredient, contact time 5 min, Table 6): 3.0 × 10^6 CFU/ml
- viable cells ([1]; 0.5 ppm active ingredient, contact time 5 min, Table 7): 5.0 × 10^6 CFU/ml
- viable cells ([1]; 0.5 ppm active ingredient, contact time 10 min, Table 6): 7.7 × 10^5 CFU/ml
- viable cells ([1]; 0.5 ppm active ingredient, contact time 10 min, Table 7): 6.7 × 10^5 CFU/ml
- viable cells ([1]; 0.5 ppm active ingredient, contact time 30 min, Table 6): 8.0 × 10^4 CFU/ml
- viable cells ([1]; 0.5 ppm active ingredient, contact time 30 min, Table 7): 8.0 × 10^4 CFU/ml
- viable cells ([1]; 0.5 ppm active ingredient, contact time 90 min, Table 6): <10^2 CFU/ml
- viable cells ([1]; 0.5 ppm active ingredient, contact time 90 min, Table 7): <10^2 CFU/ml
- viable cells ([1]; 1.0 ppm active ingredient, contact time 5 min, Table 6): 2.9 × 10^6 CFU/ml
- viable cells ([1]; 1.0 ppm active ingredient, contact time 5 min, Table 7): 4.8 × 10^6 CFU/ml
- viable cells ([1]; 1.0 ppm active ingredient, contact time 10 min, Table 6): 2.7 × 10^5 CFU/ml
- viable cells ([1]; 1.0 ppm active ingredient, contact time 10 min, Table 7): 2.9 × 10^5 CFU/ml
- viable cells ([1]; 1.0 ppm active ingredient, contact time 30 min, Table 6): 4.0 × 10^3 CFU/ml
- viable cells ([1]; 1.0 ppm active ingredient, contact time 30 min, Table 7): 8.8 × 10^3 CFU/ml
- viable cells ([1]; 1.0 ppm active ingredient, contact time 90 min, Table 6): <10^2 CFU/ml
- viable cells ([1]; 1.0 ppm active ingredient, contact time 90 min, Table 7): <10^2 CFU/ml
- viable cells ([1]; 1.5 ppm active ingredient, contact time 5 min, Table 6): 3.3 × 10^6 CFU/ml
- viable cells ([1]; 1.5 ppm active ingredient, contact time 5 min, Table 7): 4.3 × 10^6 CFU/ml
- viable cells ([1]; 1.5 ppm active ingredient, contact time 10 min, Table 6): 5.0 × 10^4 CFU/ml
- viable cells ([1]; 1.5 ppm active ingredient, contact time 10 min, Table 7): 3.0 × 10^4 CFU/ml
- viable cells ([1]; 1.5 ppm active ingredient, contact time 30 min, Table 6): 2.0 × 10^2 CFU/ml
- viable cells ([1]; 1.5 ppm active ingredient, contact time 30 min, Table 7): <10^2 CFU/ml
- viable cells ([1]; 1.5 ppm active ingredient, contact time 90 min, Table 6): <10^2 CFU/ml
- viable cells ([1]; 1.5 ppm active ingredient, contact time 90 min, Table 7): <10^2 CFU/ml
- viable cells ([1]; 2.0 ppm active ingredient, contact time 5 min, Table 6): 1.0 × 10^5 CFU/ml
- viable cells ([1]; 2.0 ppm active ingredient, contact time 5 min, Table 7): 3.2 × 10^5 CFU/ml
- viable cells ([1]; 2.0 ppm active ingredient, contact time 10 min, Table 6): 2.0 × 10^4 CFU/ml
- viable cells ([1]; 2.0 ppm active ingredient, contact time 10 min, Table 7): 1.2 × 10^4 CFU/ml
- viable cells ([1]; 2.0 ppm active ingredient, contact time 30 min, Table 6): <10^2 CFU/ml
- viable cells ([1]; 2.0 ppm active ingredient, contact time 30 min, Table 7): <10^2 CFU/ml
- viable cells ([1]; 2.0 ppm active ingredient, contact time 90 min, Table 6): <10^2 CFU/ml
- viable cells ([1]; 2.0 ppm active ingredient, contact time 90 min, Table 7): <10^2 CFU/ml

Structure (SMILES): CC1(C)C(=O)N(Cl)C(=O)N1Br [Compound A2, 1-bromo-3-chloro-5,5-dimethylhydantoin]
- Volume of Ammonia [2, 3]: 40 ppm
- Volume of Hydrogen sulfide [2, 3]: 5.0 ppm
- Volume of Methyl mercaptan [2, 3]: 10 ppm
- Volume of Ammonia [2, 4]: 40 ppm
- Volume of Hydrogen sulfide [2, 4]: 5.0 ppm
- Volume of Methyl mercaptan [2, 4]: 10 ppm
- Volume of Ammonia [2, 5]: 40 ppm
- Volume of Hydrogen sulfide [2, 5]: 5.0 ppm
- Volume of Methyl mercaptan [2, 5]: 10 ppm
- Volume of Ammonia [2, 6]: 40 ppm
- Volume of Hydrogen sulfide [2, 6]: 5.0 ppm
- Volume of Methyl mercaptan [2, 6]: 10 ppm
- Volume of Ammonia [2, 7]: 10 ppm
- Volume of Hydrogen sulfide [2, 7]: 2.5 ppm
- Volume of Methyl mercaptan [2, 7]: 0.5 ppm
- Volume of Ammonia [2, 8]: 40 ppm
- Volume of Hydrogen sulfide [2, 8]: 5.0 ppm
- Volume of Methyl mercaptan [2, 8]: 10 ppm
- Volume of Ammonia [2, 9]: 20 ppm
- Volume of Hydrogen sulfide [2, 9]: 5.0 ppm
- Volume of Methyl mercaptan [2, 9]: 5.0 ppm
